The test deals with cancer cells. In words: MTS cell growth inhibition assay (72 hours). The test is classed as cell-based. The method in brief:
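Growth inhibition read as formazan absorbance at 492 nm after 4 h MTS/PMS, following 72 h compound exposure at 37 °C in 1% FBS DMEM (cells pre-seeded 18 h). IC50 = 50% absorbance reduction; inhibition graded in bands.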

The mark [1] stands for this setting: Homo sapiens, DLD-1, 72 h, DLD-1 cells, read-out: DLD-1 MTS 72 hr at 10 μM.
The mark [2] stands for this setting: Homo sapiens, KATO III, 72 h, KATO III cells, read-out: KATO III MTS 72 hr at 10 μM.
[3] abbreviates: Homo sapiens, MDA-MB-231, 72 h, MDA-MB-231 cells, read-out: MDA-MB-231 MTS 72 hr at 10 μM.
[4] abbreviates: Homo sapiens, NCI-H1299, 72 h, NCI-H1299 cells, read-out: NCI-H1299 MTS 72 hr at 10 μM.
Where [5] appears, read: PaCa-2, 72 h, PACA-2 cells, read-out: PACA-2 MTS 72 hr at 10 μM.

Read-outs that look alike come from different tables or passages of the source.

As to `CCc1ccc(S(=O)(=O)N2CCC(Nc3nc(N)nc4[nH]ncc34)Cc3ccccc32)cc1` (stereo not shown) [Compound 172, N4-{1-[(4-ethylphenyl)sulfonyl]-2,3,4,5-tetrahydro-1H-1-benzazepin-4-yl}-1H-pyrazolo[3,4-d]pyrimidine-4,6-diamine], the inhibition at 10 µM under setting [1] is < 50%; the inhibition at 10 µM under setting [2] was < 50%; the inhibition at 10 µM under setting [3] is < 50%; the inhibition at 10 µM under setting [4] was < 50%; the inhibition at 10 µM under setting [5] is < 50%.
Take `Cc1cc(C)c(S(=O)(=O)N2CCC(Nc3nc(N)nc4[nH]ncc34)Cc3ccccc32)c(C)c1` (stereo not shown) [Compound 173, N4-[1-(mesitylsulfonyl)-2,3,4,5-tetrahydro-1H-1-benzazepin-4-yl]-1H-pyrazolo[3,4-d]pyrimidine-4,6-diamine]: the inhibition at 10 µM is, setting by setting: under setting [1], < 50%; under setting [2], < 50%; under setting [3], < 50%; under setting [4], < 50%; under setting [5], < 50%.
For `Nc1nc(NC2CCN(S(=O)(=O)c3cc(Cl)cc(Cl)c3)c3ccccc3C2)c2cn[nH]c2n1` (stereo not shown) [Compound 174, N4-{1-[(3,5-dichlorophenyl)sulfonyl]-2,3,4,5-tetrahydro-1H-1-benzazepin-4-yl}-1H-pyrazolo[3,4-d]pyrimidine-4,6-diamine], the inhibition at 10 µM by setting is: under setting [1], 50 to 79%; under setting [2], 50 to 79%; under setting [3], < 50%; under setting [4], < 50%; under setting [5], 50 to 79%.
With `COc1cccc(S(=O)(=O)N2CCC(Nc3nc(N)nc4[nH]ncc34)Cc3ccccc32)c1` (stereo not shown) [Compound 175, N4-{1-[(3-methoxyphenyl)sulfonyl]-2,3,4,5-tetrahydro-1H-1-benzazepin-4-yl}-1H-pyrazolo[3,4-d]pyrimidine-4,6-diamine], the inhibition at 10 µM is < 50% under setting [1]; < 50% under setting [2]; < 50% under setting [3]; < 50% under setting [4]; < 50% under setting [5].
On to `COc1ccc(OC)c(S(=O)(=O)N2CCC(Nc3nc(N)nc4[nH]ncc34)Cc3ccccc32)c1` (stereo not shown) [Compound 176, N4-{1-[(2,5-dimethoxyphenyl)sulfonyl]-2,3,4,5-tetrahydro-1H-1-benzazepin-4-yl}-1H-pyrazolo[3,4-d]pyrimidine-4,6-diamine], for which the inhibition at 10 µM reads like this: under setting [1], < 50%; under setting [2], < 50%; under setting [3], < 50%; under setting [4], < 50%; under setting [5], < 50%.
Turning to `Cc1ccc(S(=O)(=O)N2CCC(Nc3nc(N)nc4[nH]ncc34)Cc3ccccc32)cc1` (stereo not shown) [Compound 177, N4-{1-[(4-methylphenyl)sulfonyl]-2,3,4,5-tetrahydro-1H-1-benzazepin-4-yl}-1H-pyrazolo[3,4-d]pyrimidine-4,6-diamine], the inhibition at 10 µM by setting is: under setting [1], < 50%; under setting [2], < 50%; under setting [3], < 50%; under setting [4], < 50%; under setting [5], < 50%.
`Nc1nc(NC2CCN(S(=O)(=O)c3ccc(Cl)c(Cl)c3)c3ccccc3C2)c2cn[nH]c2n1` (stereo not shown) [Compound 179, N4-{1-[(3,4-dichlorophenyl)sulfonyl]-2,3,4,5-tetrahydro-1H-1-benzazepin-4-yl}-1H-pyrazolo[3,4-d]pyrimidine-4,6-diamine]: the inhibition at 10 µM reads like this: under setting [1], 50 to 79%; under setting [2], 50 to 79%; under setting [3], < 50%; under setting [4], < 50%; under setting [5], < 50%.
On to `N#Cc1cccc(S(=O)(=O)N2CCC(Nc3nc(N)nc4[nH]ncc34)Cc3ccccc32)c1` (stereo not shown) [Compound 180, 3-({4-[(6-amino-1H-pyrazolo[3,4-d]pyrimidin-4-yl)amino]-2,3,4,5-tetrahydro-1H-1-benzazepin-1-yl}sulfonyl)benzonitrile], for which the inhibition at 10 µM under setting [1] is < 50%; the inhibition at 10 µM under setting [2] was < 50%; the inhibition at 10 µM under setting [3] was < 50%; the inhibition at 10 µM under setting [4] was < 50%; the inhibition at 10 µM under setting [5] was < 50%.
In the case of `Nc1nc(NC2CCN(S(=O)(=O)c3ccc(F)c(Cl)c3)c3ccccc3C2)c2cn[nH]c2n1` (stereo not shown) [Compound 181, N4-{1-[(3-chloro-4-fluorophenyl)sulfonyl]-2,3,4,5-tetrahydro-1H-1-benzazepin-4-yl}-1H-pyrazolo[3,4-d]pyrimidine-4,6-diamine], the inhibition at 10 µM is < 50% under setting [1]; < 50% under setting [2]; < 50% under setting [3]; < 50% under setting [4]; 50 to 79% under setting [5].
Regarding `Nc1nc(NC2CCN(S(=O)(=O)c3ccc(F)c(F)c3)c3ccccc3C2)c2cn[nH]c2n1` (stereo not shown) [Compound 182, N4-{1-[(3,4-difluorophenyl)sulfonyl]-2,3,4,5-tetrahydro-1H-1-benzazepin-4-yl}-1H-pyrazolo[3,4-d]pyrimidine-4,6-diamine], the inhibition at 10 µM reads like this: under setting [1], < 50%; under setting [2], < 50%; under setting [3], < 50%; under setting [4], < 50%; under setting [5], < 50%.
For the compound `Nc1nc(NC2CCN(S(=O)(=O)c3ccc(F)cc3)c3ccccc3C2)c2cn[nH]c2n1` (stereo not shown) [Compound 183, N4-{1-[(4-fluorophenyl)sulfonyl]-2,3,4,5-tetrahydro-1H-1-benzazepin-4-yl}-1H-pyrazolo[3,4-d]pyrimidine-4,6-diamine], the inhibition at 10 µM runs as follows: under setting [1], < 50%; under setting [2], < 50%; under setting [3], < 50%; under setting [4], < 50%; under setting [5], < 50%.
Consider `Cc1ccc(C)c(S(=O)(=O)N2CCC(Nc3nc(N)nc4[nH]ncc34)Cc3ccccc32)c1` (stereo not shown) [Compound 184, N4-{1-[(2,5-dimethylphenyl)sulfonyl]-2,3,4,5-tetrahydro-1H-1-benzazepin-4-yl}-1H-pyrazolo[3,4-d]pyrimidine-4,6-diamine], for which the inhibition at 10 µM by setting is: under setting [1], < 50%; under setting [2], < 50%; under setting [3], < 50%; under setting [4], < 50%; under setting [5], < 50%.
For `Nc1nc(NC2CCN(S(=O)(=O)c3ccc(OC(F)(F)F)cc3)c3ccccc3C2)c2cn[nH]c2n1` (stereo not shown) [Compound 185, N4-(1-{[4-(trifluoromethoxy)phenyl]sulfonyl}-2,3,4,5-tetrahydro-1H-1-benzazepin-4-yl)-1H-pyrazolo[3,4-d]pyrimidine-4,6-diamine], the inhibition at 10 µM by setting is: under setting [1], < 50%; under setting [2], < 50%; under setting [3], < 50%; under setting [4], < 50%; under setting [5], < 50%.
Take `Nc1nc(NC2CCN(S(=O)(=O)c3ccc(C(F)(F)F)cc3)c3ccccc3C2)c2cn[nH]c2n1` (stereo not shown) [Compound 186, N4-(1-{[4-(trifluoromethyl)phenyl]sulfonyl}-2,3,4,5-tetrahydro-1H-1-benzazepin-4-yl)-1H-pyrazolo[3,4-d]pyrimidine-4,6-diamine]: the inhibition at 10 µM is, setting by setting: under setting [1], < 50%; under setting [2], < 50%; under setting [3], < 50%; under setting [4], < 50%; under setting [5], < 50%.

The record behind these values is patent US8273754B2, “Substituted 1H-pyrazolo[3,4-D]pyrimidine-6-amine compounds” (ArQule, Inc., priority 2008, dated 2012).
